From paper PMC10528385 (Antiviral research, 2023) come the findings set out here.

Test [1] addresses NA of A/Bethesda/956/2006 A(H3N2), NA-R292K (Influenza A virus, UniProt F1KL32, R292K). It counts as biochemical. To be noted: read-out: Susceptibility to NAIs, mean IC50 ± SD.
For test [2], the target named is NA of A/Texas/12/2007 A(H3N2), NA-E119V (Influenza A virus, UniProt D1FVK3, I119V). As to the kind of experiment: biochemical.

On to `CC(=O)N[C@H]1[C@H]([C@H](O)[C@H](O)CO)OC(C(=O)O)=C[C@@H]1N=C(N)N` [Zanamivir, zanamivir], for which the figures for the IC50 in test [1] and in test [2] were 10.6 ± 1.4 nM and 1.3 nM, respectively.
